Read-outs that look alike come from different tables or passages of the source.
Assays:
wildtype LRRK2 = target: T1, wildtype LRRK2 (Homo sapiens, UniProt Q5S007); assay: LRRK2 degradation assay, HiBit-tagged wildtype LRRK2 expressed from plasmid in HEK293 cells (Nano-Glo Dual-Luciferase); format: cell-based; details: 24 hours; for Dmax: read-out: **WT Dmax (%); for DC50: read-out: *WT DC50
T1 construct: expressed in transfected cells; host or cells: HEK293 (ATCC CRL-1573), transient transfection, mammalian expression vector with ubiquitin promoter
T1 sequence (Q5S007 whole entry): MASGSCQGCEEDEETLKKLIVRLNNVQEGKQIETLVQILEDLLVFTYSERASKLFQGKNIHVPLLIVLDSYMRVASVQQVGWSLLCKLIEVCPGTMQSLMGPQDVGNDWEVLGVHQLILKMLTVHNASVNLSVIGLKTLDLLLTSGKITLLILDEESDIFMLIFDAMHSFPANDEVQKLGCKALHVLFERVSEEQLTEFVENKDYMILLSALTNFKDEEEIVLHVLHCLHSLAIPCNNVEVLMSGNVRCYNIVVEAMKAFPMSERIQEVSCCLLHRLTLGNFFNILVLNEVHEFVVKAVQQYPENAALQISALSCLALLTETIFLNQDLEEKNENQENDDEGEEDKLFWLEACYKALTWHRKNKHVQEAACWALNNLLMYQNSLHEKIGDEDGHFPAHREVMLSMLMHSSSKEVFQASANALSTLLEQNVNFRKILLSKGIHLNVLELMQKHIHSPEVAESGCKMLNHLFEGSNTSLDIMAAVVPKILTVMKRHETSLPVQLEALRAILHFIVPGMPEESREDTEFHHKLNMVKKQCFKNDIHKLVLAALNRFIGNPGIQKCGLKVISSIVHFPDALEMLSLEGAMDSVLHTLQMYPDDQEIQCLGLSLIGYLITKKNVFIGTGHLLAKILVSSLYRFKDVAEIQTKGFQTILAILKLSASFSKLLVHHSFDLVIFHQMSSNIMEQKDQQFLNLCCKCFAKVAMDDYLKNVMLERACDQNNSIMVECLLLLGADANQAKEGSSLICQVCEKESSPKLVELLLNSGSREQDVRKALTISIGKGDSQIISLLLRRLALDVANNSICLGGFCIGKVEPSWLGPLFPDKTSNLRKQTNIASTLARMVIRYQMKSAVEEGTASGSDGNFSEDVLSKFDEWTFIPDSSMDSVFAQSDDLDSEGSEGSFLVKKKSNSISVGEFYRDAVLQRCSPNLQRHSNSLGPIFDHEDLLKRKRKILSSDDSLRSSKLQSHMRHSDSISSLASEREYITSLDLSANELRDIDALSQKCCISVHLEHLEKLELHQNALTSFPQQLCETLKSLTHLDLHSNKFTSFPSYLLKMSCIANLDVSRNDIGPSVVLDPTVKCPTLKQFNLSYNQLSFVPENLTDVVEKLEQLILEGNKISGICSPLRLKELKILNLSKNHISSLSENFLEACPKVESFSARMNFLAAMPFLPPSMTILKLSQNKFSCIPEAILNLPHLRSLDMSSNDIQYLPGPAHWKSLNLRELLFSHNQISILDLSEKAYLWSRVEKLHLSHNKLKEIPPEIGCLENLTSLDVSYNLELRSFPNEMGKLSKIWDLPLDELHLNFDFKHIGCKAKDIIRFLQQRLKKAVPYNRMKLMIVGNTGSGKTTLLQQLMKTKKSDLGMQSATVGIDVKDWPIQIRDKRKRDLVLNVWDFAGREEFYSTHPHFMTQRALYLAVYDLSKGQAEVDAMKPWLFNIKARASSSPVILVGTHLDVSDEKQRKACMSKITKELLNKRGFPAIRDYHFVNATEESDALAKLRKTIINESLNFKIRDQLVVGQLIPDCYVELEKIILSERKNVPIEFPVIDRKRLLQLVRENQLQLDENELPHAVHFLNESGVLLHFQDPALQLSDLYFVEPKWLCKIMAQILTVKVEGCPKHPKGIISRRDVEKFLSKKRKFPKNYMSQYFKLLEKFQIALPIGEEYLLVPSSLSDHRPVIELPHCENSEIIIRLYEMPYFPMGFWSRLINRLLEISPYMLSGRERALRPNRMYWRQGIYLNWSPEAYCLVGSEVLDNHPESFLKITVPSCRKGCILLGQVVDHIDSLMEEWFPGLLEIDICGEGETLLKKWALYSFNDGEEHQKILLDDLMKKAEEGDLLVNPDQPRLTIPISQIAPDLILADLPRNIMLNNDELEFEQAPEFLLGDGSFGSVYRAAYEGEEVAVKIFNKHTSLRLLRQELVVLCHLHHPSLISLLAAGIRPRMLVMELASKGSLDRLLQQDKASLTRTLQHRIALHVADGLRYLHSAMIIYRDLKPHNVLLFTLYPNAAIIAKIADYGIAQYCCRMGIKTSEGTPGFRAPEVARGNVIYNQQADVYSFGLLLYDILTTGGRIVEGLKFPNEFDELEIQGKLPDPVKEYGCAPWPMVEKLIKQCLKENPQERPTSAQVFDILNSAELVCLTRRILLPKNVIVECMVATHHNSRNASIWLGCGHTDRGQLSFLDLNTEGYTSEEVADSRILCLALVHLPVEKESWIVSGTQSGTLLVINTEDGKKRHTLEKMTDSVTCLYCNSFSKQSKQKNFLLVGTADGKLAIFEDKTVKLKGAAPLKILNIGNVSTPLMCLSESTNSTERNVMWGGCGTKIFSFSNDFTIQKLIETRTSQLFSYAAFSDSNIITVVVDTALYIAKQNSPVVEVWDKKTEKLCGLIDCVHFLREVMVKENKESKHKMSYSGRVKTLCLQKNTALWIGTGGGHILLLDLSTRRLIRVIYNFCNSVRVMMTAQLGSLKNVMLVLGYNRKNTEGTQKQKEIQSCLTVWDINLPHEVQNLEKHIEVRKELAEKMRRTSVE
Text: (§1) Exemplary Assay for Testing LRRK2 Degradation Driven by Exemplary Hetero-Bifunctional Compounds Designed to Target LRRK2
(§2) The assay measures the degradation of wildtype and G2019S LRRK2 tagged with a HiBit tag on the C-terminus of the protein that was expressed from a mammalian expression vector, driven by the ubiquitin promoter in HEK293 cells. Each compound dose-response was repeated on two separate days, on three separate plates each day.
(§3) Plasmid Preparation. Transfection mixes were assembled as follows and incubated for 30 minutes at room temperature. In a 15 mL tube, 5.25 mL Opti-MEM (no additions) was mixed with 17 μL Firefly Luciferase plasmid at 1 μg/μL and 158 μL WT plasmid DNA at 1 μg/μL (175 μg total DNA) were mixed by flicking. In a new 15 mL tube, 5.25 mL OptiMEM was mixed with 17 μL Firefly Luciferase plasmid at 1 μg/μL and 158 μL G2019S plasmid DNA at 1 μg/μL (175 μg total DNA) were mixed by flicking. X-tremeGene HP was mixed thoroughly using a vortex. Next, 175 μL was added to each tube and flicked to mix. Both tubes were left to incubate for 30 minutes at room temperature.
(§4) While the transfection mixes were incubating, HEK293 cells (acquired from ATCC; ATCC CRL-1573) were harvested with trypsin. Once cells are detached, the cells were resuspended in 12 mL OptiMEM+5% FBS and transferred to a 50 mL tube. The cells were mixed well and counted. Using OptiMEM+5% FBS, the cells were diluted in two 250 mL conical tubes at 0.71×10^6 cells/mL in 70 mL. One tube was labeled “WT” and the other “G2019S”. The WT and G2019S transfection mixes were added dropwise to the corresponding 250 mL tubes. The tubes were mixed first by pipetting then by swirling. The tubes were incubated at room temperature for at least 5 minutes.
(§5) Each tube was swirled before dispensing and after every three plates. Seventy microliters of cells were dispensed with WT or G2019S DNA to seven plates each. Three plates of each were tested with compound plate one (preparation described below) and three plates of each were tested with compound plate two (preparation described below). The first plate from each set served as a “prime” plate and was not used to test compounds. Each plate was incubated in the hood for 10 minutes before placing in the 37° C. incubator for 24 hours.
(§6) Preparation of Compound and Assay Plates. Two compound plates were made using 96 well polypropylene plates. Compounds were made up at 10 mM and were diluted to 1 mM in 30 μL. Each dose response curve included a well of DMSO, as a negative control and for normalization, and a well of 0.5 μM of Compound 4 as a positive control. In addition to seven test compounds, each plate also included a dose response of Compound 4. The compound plates were spun down along at 1200 rpm for 2 minutes.
(§7) The two compound plates were then mixed and 2 μL was diluted in intermediate plates having 248 μL of Opti-Mem in each well. Next, 10 μL diluted compounds from the intermediate plates were added to each test plate (three WT and three G2019S plates per compound plate for a total of 12 assay plates). The plates were incubated for 24 hours at 37° C.
(§8) All assay plates and all Nano-Glo Dual-Luciferase Reporter Assay System components (except for the DLR substrate) were equilibrated to room temperature. Next, the luciferase buffer was mixed with the lyophilized amber bottle until fully dissolved, and 75 μL of the luciferase mixture was added to each well of each assay plate. The assay plates were incubated for 10 minutes at room temperature with shaking for at least 5 minutes, and then read on a plate reader.
(§9) Developing Plates and Analyzing Data. One milliliter of DLR substrate and 1 mL LgBiT Protein were added to the Stop and Glo buffer, and 75 μL of the mixture was added to each well of each plate. Optically clear seals were added to each plate and each plate was incubated for 20 minutes with shaking for at least 10 minutes, and then read on a plate reader. […]

G2019S LRRK2 = target: T2, G2019S LRRK2 (Homo sapiens, UniProt Q5S007, G2019S); assay: LRRK2 degradation assay, HiBit-tagged G2019S LRRK2 expressed from plasmid in HEK293 cells (Nano-Glo Dual-Luciferase); format: cell-based; details: 24 hours
T2 construct: expressed in transfected cells; host or cells: HEK293 (ATCC CRL-1573), transient transfection, mammalian expression vector with ubiquitin promoter
T2 sequence (Q5S007 whole entry G2019S): as the sequence (Q5S007 whole entry) above, with G2019S counted along it
Text: as §1, §2, §3, §4, §5, §6, §7, §8, §9

[1] = HiBit-tagged wildtype LRRK2 in HEK293 cells
[2] = HiBit-tagged G2019S LRRK2 in HEK293 cells
[3] = HiBit-tagged wildtype LRRK2, HEK293 cells
[4] = HiBit-tagged G2019S LRRK2, HEK293 cells

| SMILES | Dmax (wildtype LRRK2; [1]) [%] | DC50 (wildtype LRRK2; [1]) [nM] | DC50 (G2019S LRRK2; [2]) [nM] | Dmax (G2019S LRRK2; [2]) [%] | Dmax (wildtype LRRK2; [3]) [%] | DC50 (wildtype LRRK2; [3]) [nM] | DC50 (G2019S LRRK2; [4]) [nM] | Dmax (G2019S LRRK2; [4]) [%] |
| --- | --- | --- | --- | --- | --- | --- | --- | --- |
| CC1(Oc2ccc3[nH]nc(-c4cc(N5CCN(C[C@@H]6CCN(CC7CCN(c8ccc9c(c8)C(=O)N(C8CCC(=O)NC8=O)C9=O)CC7)C(=O)C6)CC5)ncn4)c3c2)CC1 (single isomer, unassigned) [Compound 103] | 50 to 70 | < 10 | < 10 | 50 to 70 |  |  |  |  |
| CC1(Oc2ccc3[nH]nc(-c4cc(N5CCN(C[C@H]6CCN(CC7CCN(c8ccc9c(c8)C(=O)N(C8CCC(=O)NC8=O)C9=O)CC7)C(=O)C6)CC5)ncn4)c3c2)CC1 (single isomer, unassigned) [Compound 104] | 50 to 70 | < 10 | < 10 | < 50 |  |  |  |  |
| CC1(Oc2ccc3[nH]nc(-c4cc(N5CCO[C@@H](CCN6CCN(CC7CCN(c8ccc9c(c8)C(=O)N(C8CCC(=O)NC8=O)C9=O)CC7)CC6)C5)ncn4)c3c2)CC1 (single isomer, unassigned) [Compound 154] |  |  |  |  | 50 to 70 | < 10 | < 10 | 50 to 70 |
| CC1(Oc2ccc3[nH]nc(-c4cc(N5CCN(CC(F)(F)C6CCN(CC7CCN(c8ccc9c(c8)C(=O)N(C8CCC(=O)NC8=O)C9=O)CC7)CC6)CC5)ncn4)c3c2)CC1 (stereo not shown) [Compound 53, 5-[4-[[4-[1,1-difluoro-2-[4-[6-[5-(1-methylcyclopropoxy)-1H-indazol-3-yl]pyrimidin-4-yl]piperazin-1-yl]ethyl]-1-piperidyl]methyl]-1-piperidyl]-2-(2,6-dioxo-3-piperidyl)isoindoline-1,3-dione] | 50 to 70 | < 10 | < 10 | 50 to 70 |  |  |  |  |
| CC1(Oc2ccc3[nH]nc(-c4cc(N5CCN(CCN6CCN(CC7CCN(c8ccc9c(c8)C(=O)N(C8CCC(=O)NC8=O)C9=O)CC7)CC6)CC5)ncn4)c3c2)CC1 (stereo not shown) [Compound 54, 2-(2,6-dioxopiperidin-3-yl)-5-[4-({4-[2-(4-{6-[5-(1-methylcyclopropoxy)-1H-indazol-3-yl]pyrimidin-4-yl}piperazin-1-yl)ethyl]piperazin-1-yl}methyl)piperidin-1-yl]-2,3-dihydro-1H-isoindole-1,3-dione] | ≥ 70 | < 10 | < 10 | ≥ 70 |  |  |  |  |
| C[C@H]1CN(c2cc(-c3n[nH]c4ccc(OC5(C)CC5)cc34)ncn2)CCN1CCN1CCN(CC2CCN(c3ccc4c(c3)C(=O)N(C3CCC(=O)NC3=O)C4=O)CC2)CC1 (stereo partly drawn) [Compound 55, 2-(2,6-dioxopiperidin-3-yl)-5-{4-[(4-{2-[(2S)-2-methyl-4-{6-[5-(1-methylcyclopropoxy)-1H-indazol-3-yl]pyrimidin-4-yl}piperazin-1-yl]ethyl}piperazin-1-yl)methyl]piperidin-1-yl}-2,3-dihydro-1H-isoindole-1,3-dione] | ≥ 70 | < 10 | < 10 | ≥ 70 |  |  |  |  |
| C[C@H]1CN(c2cc(-c3n[nH]c4ccc(OC5(C)CC5)cc34)ncn2)CCN1CCN1CCN(C(=O)C2CCN(c3ccc4c(c3)C(=O)N(C3CCC(=O)NC3=O)C4=O)CC2)CC1 (stereo partly drawn) [Compound 56, 2-(2,6-dioxo-3-piperidyl)-5-[4-[4-[2-[(2S)-2-methyl-4-[6-[5-(1-methylcyclopropoxy)-2H-indazol-3-yl]pyrimidin-4-yl]piperazin-1-yl]ethyl]piperazine-1-carbonyl]-1-piperidyl]isoindoline-1,3-dione] | ≥ 70 | < 10 | < 10 | ≥ 70 |  |  |  |  |
| CC1(Oc2ccc3[nH]nc(-c4cc(N5CCC(CN=S6(=O)CCN(CC7CCN(c8ccc9c(c8)C(=O)N(C8CCC(=O)NC8=O)C9=O)CC7)CC6)CC5)ncn4)c3c2)CC1 (stereo not shown) [Compound 63, 2-(2,6-dioxo-3-piperidyl)-5-[4-[[1-[[1-[6-[5-(1-methylcyclopropoxy)-1H-indazol-3-yl]pyrimidin-4-yl]-4-piperidyl]methylimino]-1-oxo-1,4-thiazinan-4-yl]methyl]-1-piperidyl]isoindoline-1,3-dione] | ≥ 70 | < 10 | < 10 | ≥ 70 |  |  |  |  |
| CC1(Oc2ccc3n[nH]c(-c4cc(N5CCC(CN6CCC(CN7CCN(c8ccc9c(c8)C(=O)N(C8CCC(=O)NC8=O)C9=O)CC7)CC6)CC5)ncn4)c3c2)CC1 (stereo not shown) [Compound 67, 2-(2,6-dioxo-3-piperidyl)-5-[4-[[1-[[1-[6-[5-(1-methylcyclopropoxy)-2H-indazol-3-yl]pyrimidin-4-yl]-4-piperidyl]methyl]-4-piperidyl]methyl]piperazin-1-yl]isoindoline-1,3-dione] | ≥ 70 | < 10 | < 10 | ≥ 70 |  |  |  |  |
| C[C@H]1CN(c2cc(-c3n[nH]c4ccc(OC5(C)CC5)cc34)ncn2)CCN1CC1CCN(CC2(F)CCN(c3ccc4c(c3)C(=O)N(C3CCC(=O)NC3=O)C4=O)CC2)CC1 (stereo partly drawn) [Compound 70, 2-(2,6-dioxo-3-piperidyl)-5-[4-fluoro-4-[[4-[[(2S)-2-methyl-4-[6-[5-(1-methylcyclopropoxy)-1H-indazol-3-yl]pyrimidin-4-yl]piperazin-1-yl]methyl]-1-piperidyl]methyl]-1-piperidyl]isoindoline-1,3-dione] | < 50 | < 10 | < 10 | < 50 |  |  |  |  |
| C[C@H]1CN(c2cc(-c3n[nH]c4ccc(OC5(C)CC5)cc34)ncn2)CCN1C[C@H]1CCN(CC2CCN(c3ccc4c(c3)C(=O)N(C3CCC(=O)NC3=O)C4=O)CC2)C1 (stereo partly drawn) [Compound 111, 2-(2,6-dioxo-3-piperidyl)-5-[4-[[(3S)-3-[[(2S)-2-methyl-4-[6-[5-(1-methylcyclopropoxy)-1H-indazol-3-yl]pyrimidin-4-yl]piperazin-1-yl]methyl]pyrrolidin-1-yl]methyl]-1-piperidyl]isoindoline-1,3-dione] | ≥ 70 | < 10 |  |  |  |  |  |  |
| CC1(Oc2ccc3[nH]nc(-c4cc(N5CCC(CN6CC[C@H](CN7CCN(c8ccc9c(c8)C(=O)N(C8CCC(=O)NC8=O)C9=O)CC7)C6)CC5)ncn4)c3c2)CC1 (stereo partly drawn) [Compound 114, 2-(2,6-dioxo-3-piperidyl)-5-[4-[[(3S)-1-[[1-[6-[5-(1-methylcyclopropoxy)-1H-indazol-3-yl]pyrimidin-4-yl]-4-piperidyl]methyl]pyrrolidin-3-yl]methyl]piperazin-1-yl]isoindoline-1,3-dione] | 50 to 70 | < 10 |  |  |  |  |  |  |
| CC1(Oc2ccc3[nH]nc(-c4cc(N5CCC(CN6CCN(CC7CCN(c8cccc9c8C(=O)N(C8CCC(=O)NC8=O)C9=O)CC7)CC6)CC5)ncn4)c3c2)CC1 (stereo not shown) [Compound 146, 2-(2,6-dioxo-3-piperidyl)-4-[4-[[4-[[1-[6-[5-(1-methylcyclopropoxy)-2H-indazol-3-yl]pyrimidin-4-yl]-4-piperidyl]methyl]piperazin-1-yl]methyl]-1-piperidyl]isoindoline-1,3-dione] | 50 to 70 | 10 to 50 |  |  |  |  |  |  |
